From patent US20230295162A1 (EÖTVÖS LORÁND TUDOMÁNYEGYETEM, priority 2020, published 2023)
pIC50: −log10 of the molar value.

Columns and labels:
[1] = test system: Detroit 562 (pharynx, carcinoma) cells; experiment: Cell viability assay, CellTiter-Glo (Example 21); type: cell-based, human; details: 72 h treatment
Outline: (§1)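 Seeding density per line: Panc-1 750, FaDu 1000, Detroit 562 and MDA-MB-453 1500 cells/well. Viability after treatment read by CellTiter-Glo luminescence; dose-response curves fitted by four-parameter variable-slope non-linear regression.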

[2] = test system: FaDu (pharynx, squamous cell carcinoma) cells; experiment: Cell viability assay, CellTiter-Glo (Example 21); type: cell-based, human; details: 72 h treatment
Outline: as §1

[3] = test system: EBC-1 (lung, squamous cell carcinoma) cells; experiment: Cell viability assay, CellTiter-Glo (Example 21); type: cell-based, human; details: 72 h treatment
Outline: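 EBC-1 lung squamous cell carcinoma cells were seeded at 1000 cells/well in flat-bottomed white 96 well plates. After compound treatment, viability was measured with the CellTiter-Glo luminescent assay following the manufacturer's instructions, and luminescence was read on a BioTek Synergy 2 Multi-Mode microplate reader.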

[4] = test system: LNCaP (prostate, carcinoma) cells; experiment: Cell viability assay, CellTiter-Glo (Example 21); type: cell-based, human; details: 72 h
Outline: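 LNCaP prostate carcinoma cell viability was assessed with the CellTiter-Glo® luminescent assay (Promega), following the manufacturer's instructions. Cells were seeded at 1500 cells/well into flat-bottomed white 96 well plates, treated, and then luminescence was read on a BioTek Synergy 2 Multi-Mode Reader. Dose-response curves were fitted in GraphPad Prism 8.4.2 by four-parameter variable-slope non-linear regression.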

[5] = test system: Panc-1 (pancreas, carcinoma) cells; experiment: Cell viability assay, CellTiter-Glo (Example 21); type: cell-based, human; details: 72 h treatment
Outline: as §1

[6] = test system: BxPC3 pancreatic cancer cell line; experiment: CellTiter-Glo IC50 (Example 19); type: cell-based; details: Homo sapiens, BXPC-3, 72 h
Outline: (§2)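 Cells were seeded at 1000 cells/well and kept at 37° C in 5% CO2. After compound treatment, medium was removed, CellTiter-Glo reagent added and luminescence read. Viability was expressed as % of untreated control, and IC50 came from variable-slope log(inhibitor) vs response non-linear regression.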

[7] = test system: A549 lung carcinoma cell line; experiment: CellTiter-Glo IC50 (Example 19); type: cell-based; details: Homo sapiens, 72 h
Outline: as §2

[8] = test system: H520 lung carcinoma cell line; experiment: CellTiter-Glo IC50 (Example 19); type: cell-based; details: Homo sapiens, NCI-H520, 72 h
Outline: as §2

[9] = test system: MiaPaCa2 pancreatic cancer cell line; experiment: CellTiter-Glo IC50 (Example 19); type: cell-based; details: Homo sapiens, MIA PaCa-2, 72 h
Outline: as §2

[10] = test system: HCC827 lung carcinoma cell line; experiment: CellTiter-Glo IC50 (Example 19); type: cell-based; details: Homo sapiens, 72 h
Outline: as §2

[11] = test system: LNCap human prostate cancer cell line; experiment: CellTiter-Glo IC50 (Example 19); type: cell-based; details: 72 h
Outline: as §2

[12] = test system: PC3 human prostate cancer cell line; experiment: CellTiter-Glo IC50 (Example 19); type: cell-based; details: 72 h
Outline: as §2

[13] = test system: H1993 lung carcinoma cell line; experiment: CellTiter-Glo IC50 (Example 19); type: cell-based; details: Homo sapiens, NCI-H1993, 72 h
Outline: as §2

[14] = test system: COLO-205 (human colorectal adenocarcinoma) cells; experiment: Colorimetric alamarBlue assay, long treatment; details: COLO 205, 72 h, read-out: cytotoxicity expressed in IC50, COLO-205
[15] = test system: PANC-1 (human pancreatic carcinoma) cells; experiment: Impedance-based viability assay (xCELLigence SP), long treatment; type: cell-based; details: 72 h, read-out: cytotoxicity expressed in IC50, PANC-1
Description: (Gibco®/Invitrogen Corporation, New York, NY, USA).
Data obtained from each experiment represent mathematical averages.

[16] = test system: A2058 (human metastatic melanoma) cells; experiment: Colorimetric alamarBlue assay, long treatment; details: Homo sapiens, A2058, 72 h, read-out: cytotoxicity expressed in IC50, A-2058
[17] = test system: MDA-MB-231 breast cancer cell line; experiment: CellTiter-Glo IC50 (Table 3); type: cell-based; details: Homo sapiens
Description: (§3) Some representative imipridones and ONC212 as reference were further tested on the following human malignant cell lines: PC3 and LNCap (prostate carcinoma); BxPC3, MiaPaCa2 and Panc1 (pancreatic cancer); A549, HCC827, H1993 and H520 (lung carcinoma); MDA-MB-453 and MDA-MB-231 (breast cancer) (see Table 2 and FIGS. 1-11).
(§4) Cell lines were maintained according to the instructions provided by ATCC (https://www.lgcstandards-atcc.org/) in a 5% CO2 humidified incubator maintained at 37° C. temperature. Effects of compounds on cell viability were measured via CellTiter-Glo® luminescent cell viability assay (Promega, Madison, WI, USA) Cells were plated at 1000 cells/well onto a flat-bottomed, white 96 well plate (BRANDplates, cat. no.: 781965). […] After the treatment, medium was removed and CellTiter-Glo® reagent was added. The luminescence signal was recorded using a microplate reader (BioTek Synergy 2 Multi-Mode Reader, BioTek, Winooski, VT, USA).
(§5) Cell viability data (% of untreated control cells) was evaluated with Microsoft Excel. Dose-response curves (using a non-linear regression model, log (inhibitor) vs response, variable slope) were generated and IC50 values were determined using Graph Pad Prism 5.02 software (GraphPad Software, San Diego, CA, USA).

[18] = test system: MDA-MB-453 breast cancer cell line; experiment: CellTiter-Glo IC50 (Table 3); type: cell-based; details: Homo sapiens
Description: as §3, §4, §5

| Structure (SMILES) | Detroit 562 (pharynx, carcinoma) cell viability (% of control) ([1]; 3.7 nM) | Detroit 562 (pharynx, carcinoma) cell viability (% of control) ([1]; 11.1 nM) | Detroit 562 (pharynx, carcinoma) cell viability (% of control) ([1]; 100 nM) | Detroit 562 (pharynx, carcinoma) cell viability (% of control) ([1]; 300 nM) | FaDu (pharynx, squamous cell carcinoma) cell viability (% of control) ([2]; 3.7 nM) | FaDu (pharynx, squamous cell carcinoma) cell viability (% of control) ([2]; 11.1 nM) | FaDu (pharynx, squamous cell carcinoma) cell viability (% of control) ([2]; 100 nM) | FaDu (pharynx, squamous cell carcinoma) cell viability (% of control) ([2]; 300 nM) | EBC-1 (lung, squamous cell carcinoma) cell viability (% of control) ([3]; 3.7 nM) | EBC-1 (lung, squamous cell carcinoma) cell viability (% of control) ([3]; 11.1 nM) | EBC-1 (lung, squamous cell carcinoma) cell viability (% of control) ([3]; 100 nM) | EBC-1 (lung, squamous cell carcinoma) cell viability (% of control) ([3]; 300 nM) | LNCaP cell viability ([4]; 3.7 nM) | LNCaP cell viability ([4]; 11.1 nM) | LNCaP cell viability ([4]; 100 nM) | LNCaP cell viability ([4]; 300 nM) | Panc-1 (pancreas, carcinoma) cell viability (% of control) ([5]; 3.7 nM) | Panc-1 (pancreas, carcinoma) cell viability (% of control) ([5]; 11.1 nM) | Panc-1 (pancreas, carcinoma) cell viability (% of control) ([5]; 100 nM) | Panc-1 (pancreas, carcinoma) cell viability (% of control) ([5]; 300 nM) | also measured |
| --- | --- | --- | --- | --- | --- | --- | --- | --- | --- | --- | --- | --- | --- | --- | --- | --- | --- | --- | --- | --- | --- |
| O=C1C2=C(CCN(Cc3ccccc3)C2)N2CCN=C2N1Cc1ccc(C(F)(F)F)cc1 [I/1, reference compound] | 104.1 ± 4.8 % of control | 104.0 ± 17.2 % of control | 35.8 ± 14.4 % of control | 32.0 ± 5.0 % of control | 102.4 ± 7.4 % of control | 98.8 ± 4.7 % of control | 46.9 ± 5.6 % of control | 25.6 ± 5.3 % of control | 98.8 ± 5.8 % of control | 110.1 ± 11.9 % of control | 43.4 ± 6.8 % of control | 24.2 ± 2.1 % of control | 98.6 ± 5.7 % of control | 101.4 ± 3.3 % of control | 28.1 ± 1.7 % of control | 15.2 ± 1.7 % of control | 105.8 ± 0.5 % of control | 104.6 ± 7.2 % of control | 81.8 ± 8.1 % of control | 56.9 ± 2.4 % of control | pIC50 [6]: 6.96; pIC50 [7]: 7.22; pIC50 [8]: 7.14; pIC50 [9]: 7.12; pIC50 [10]: 6.98; pIC50 [11]: 7.28; pIC50 [12]: 7.10; pIC50 [13]: 7.05; pIC50 [14]: 6.60; pIC50 [15]: 7.32; pIC50 [16]: < 5.00; pIC50 [17]: 7.62; pIC50 [18]: 7.80 |
| O=C1C2=C(CCN(Cc3cccc(F)c3)C2)N2CCN=C2N1Cc1ccc(C(F)(F)F)cc1 [I/3, reference compound] | 99.5 ± 8.4 % of control | 44.3 ± 11.0 % of control | 28.9 ± 5.3 % of control | 28.7 ± 4.1 % of control | 101.6 ± 3.4 % of control | 100.9 ± 5.9 % of control | 26.2 ± 7.9 % of control | 22.4 ± 5.9 % of control | 97.8 ± 4.0 % of control | 96.3 ± 1.4 % of control | 25.1 ± 0.2 % of control | 22.2 ± 0.1 % of control | 98.7 ± 7.4 % of control | 95.0 ± 7.4 % of control | 13.8 ± 1.7 % of control | 12.7 ± 1.2 % of control | 105.8 ± 4.0 % of control | 105.7 ± 4.2 % of control | 59.9 ± 17.3 % of control | 53.9 ± 6.5 % of control | pIC50 [14]: < 5.00; pIC50 [15]: 7.36; pIC50 [16]: < 5.00 |
| O=C1C2=C(CCN(Cc3cc(F)cc(F)c3)C2)N2CCN=C2N1Cc1ccc(Cl)cc1 [I/124, 4-(4-Chlorobenzyl)-7-(3,5-difluorobenzyl)-2,4,6,7,8,9-hexahydroimidazo[1,2-a]pyrido[3,4-e]pyrimidin-5(1H)-one] | 29.4 ± 4.9 % of control | 27.8 ± 3.6 % of control | 28.3 ± 3.6 % of control | 31.5 ± 3.7 % of control | 45.6 ± 20.7 % of control | 26.1 ± 6.2 % of control | 24.5 ± 4.6 % of control | 24.7 ± 5.0 % of control | 70.9 ± 8.3 % of control | 25.3 ± 0.7 % of control | 22.4 ± 0.5 % of control | 23.5 ± 1.3 % of control | 20.8 ± 2.0 % of control | 13.3 ± 1.6 % of control | 12.7 ± 0.8 % of control | 13.0 ± 0.7 % of control | 99.7 ± 3.0 % of control | 56.9 ± 0.2 % of control | 50.9 ± 0.3 % of control | 51.2 ± 0.4 % of control | melting point: 162.4 °C |
